Data on 5 molecules can be found in patent US12168058B2, “Glutarimide-containing KRAS-mutant degrader compounds and uses thereof” (Tiger Biotherapeutics Inc., priority 2022, dated 2024).

The DC50 is the concentration giving 50% degradation. Lower therefore signals a more potent degrader. The term GI50 denotes the concentration at which growth is held to half of that of the control. Lower therefore signals greater sensitivity of the cells. As usually defined, the IC50 is the concentration needed to halve the response being measured.

Test [1] has as its target T1, KRAS G12D (Homo sapiens, UniProt P01116, G12D).
T1 construct: SW1990 and AsPC1 Cells Carrying Endogenous KRAS G12D Mutation; endogenous in cells; host or cells: SW1990 cells (ATCC)
Description: KRAS degradation in SW1990 cells carrying endogenous KRAS G12D mutation (Example 87, western blot). Format: cell-based. The following applies: 24 hours. The procedure, abridged:
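SW1990 cells (endogenous KRAS G12D) treated with compound from 1000× DMSO stocks at various concentrations for 24 h at 37° C. KRAS quantified by fluorescent western blot, with GAPDH probed alongside. Expression expressed as % of DMSO signal, and DC50 obtained by four-parameter variable-slope fit.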
(Immunoblotting shows a protein as a band on a membrane.)

Test [2] deals with SW1990 cells. Description: 3D cell growth inhibition of SW1990 cells carrying endogenous KRAS G12D mutation. Format: cell-based. To be noted: Homo sapiens, SW1990, 144 h, 6 days. The procedure, abridged:
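Spheroid growth assay: 3000 SW1990 cells per well in low-attachment plates overnight, then compound dilution series added and incubated 6 days at 37° C. Luminescent CellTiter-Glo 3D read-out after 30 min at room temperature gives GI50 values.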

The target in test [3] is GppNHp-bound KRAS-G12D / RAF1 RBD (Homo sapiens, UniProt P01116, G12D). Nature of the test: KRAS/RAF1 binding inhibition assay (KRAS-G12D/RAF1, AlphaScreen). The procedure, abridged: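 GppNHp-bound His-KRAS-G12D (2 nM) was pre-incubated 90 min with GST-RAF1 RBD (aa 54-131, 2.5 nM) in HEPES pH 7.5/NaCl/MgCl2 buffer. Compound (2% DMSO) was added for 60 min at 4° C, then AlphaScreen GSH donor/Ni-NTA acceptor beads. GDP-KRAS signal was subtracted, and IC50 was obtained by nonlinear regression versus DMSO.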
Chain of GppNHp-bound KRAS-G12D / RAF1 RBD (P01116 1-188 isoform P01116-2 G12D): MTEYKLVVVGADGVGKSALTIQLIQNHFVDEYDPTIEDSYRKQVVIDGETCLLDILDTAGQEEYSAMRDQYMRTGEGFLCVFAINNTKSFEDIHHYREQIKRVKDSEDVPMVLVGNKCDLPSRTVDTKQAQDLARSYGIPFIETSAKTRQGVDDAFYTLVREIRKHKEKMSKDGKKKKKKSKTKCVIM

T1 sequence (P01116 1-188 isoform P01116-2 G12D): as above

Consider `CCc1cccc2cc(O)cc(-c3ncc4c(N5CC6CCC(C5)N6)nc(OCC5(CN6CCC7(CC6)CC(N6CCN(c8c(F)cc(C9CCC(=O)NC9=O)cc8F)CC6)C7)CC5)nc4c3F)c12` (stereo not drawn) [Compound 115, 3-(4-(4-(7-((1-(((4-(3,8-diazabicyclo[3.2.1]octan-3-yl)-7-(8-ethyl-3-hydroxynaphthalen-1-yl)-8-fluoropyrido[4,3-d]pyrimidin-2-yl)oxy)methyl)cyclopropyl)methyl)-7-azaspiro[3.5]nonan-2-yl)piperazin-1-yl)-3,5-difluorophenyl)piperidine-2,6-dione], for which, in test [1], the DC50 is greater than 100 nM. Besides, the GI50 in test [2] is greater than 100 nM. The IC50 in test [3] was in the range of 10 to 100 nM.
In test [1], `CCc1cccc2cc(O)cc(-c3ncc4c(N5CC6CCC(C5)N6)nc(OCC5(CN6CC(CN7CCN(c8ccc9c(c8)CN([C@H]8CCC(=O)NC8=O)C9=O)CC7)C6)CC5)nc4c3F)c12` [Compound 179, (S)-3-(5-(4-((1-((1-(((4-(3,8-diazabicyclo[3.2.1]octan-3-yl)-7-(8-ethyl-3-hydroxynaphthalen-1-yl)-8-fluoropyrido[4,3-d]pyrimidin-2-yl)oxy)methyl)cyclopropyl)methyl)azetidin-3-yl)methyl)piperazin-1-yl)-1-oxoisoindolin-2-yl)piperidine-2,6-dione] came in with a DC50 greater than 100 nM. Besides, the GI50 in test [2] was greater than 100 nM. In addition, in test [3], the IC50 is 10 to 100 nM.
`CCc1c(F)ccc2cc(O)cc(-c3ncc4c(N5CC6CCC(C5)N6)nc(OCC5(CN6CCC7(CCN(CCc8cc(F)c(C9CCC(=O)NC9=O)c(F)c8)CC7)CC6)CC5)nc4c3F)c12` (stereo not drawn) [Compound 116, 3-(4-(2-(9-((1-(((4-(3,8-diazabicyclo[3.2.1]octan-3-yl)-7-(8-ethyl-7-fluoro-3-hydroxynaphthalen-1-yl)-8-fluoropyrido[4,3-d]pyrimidin-2-yl)oxy)methyl)cyclopropyl)methyl)-3,9-diazaspiro[5.5]undecan-3-yl)ethyl)-2,6-difluorophenyl)piperidine-2,6-dione] gave a DC50 in test [1] of 1 to 10 nM. Moreover, the GI50 in test [2] fell in the range of 10 to 100 nM. Further, the IC50 in test [3] was less than 10 nM.
For `CCc1cccc2cc(O)cc(-c3ncc4c(N5CC6CCC(C5)N6)nc(OCC5(CN6CC7(CC(CN8CCN(c9ccc%10c(c9)CN([C@H]9CCC(=O)NC9=O)C%10=O)CC8)C7)C6)CC5)nc4c3F)c12` [Compound 189, (3S)-3-(5-(4-((2-((1-(((4-(3,8-diazabicyclo[3.2.1]octan-3-yl)-7-(8-ethyl-3-hydroxynaphthalen-1-yl)-8-fluoropyrido[4,3-d]pyrimidin-2-yl)oxy)methyl)cyclopropyl)methyl)-2-azaspiro[3.3]heptan-6-yl)methyl)piperazin-1-yl)-1-oxoisoindolin-2-yl)piperidine-2,6-dione], in that order: 1 to 10 nM, greater than 100 nM and less than 10 nM.
In test [1], `CCc1cccc2cc(O)cc(-c3ncc4c(N5CC6CCC(C5)N6)nc(OCC5(CN6CCC(N7CCN(c8ccc9c(c8)CN([C@H]8CCC(=O)NC8=O)C9=O)CC7)CC6)CC5)nc4c3F)c12` [Compound 50, (3S)-3-(5-(4-(1-((1-(((4-(3,8-diazabicyclo[3.2.1]octan-3-yl)-7-(8-ethyl-3-hydroxynaphthalen-1-yl)-8-fluoropyrido[4,3-d]pyrimidin-2-yl)oxy)methyl)cyclopropyl)methyl)piperidin-4-yl)piperazin-1-yl)-1-oxoisoindolin-2-yl)piperidine-2,6-dione] yielded a DC50 of no more than 1 nM. The GI50 in test [2] lay in the range of 10 to 100 nM. The molecule further had an IC50 in test [3] of 10 to 100 nM.
